The record followed here is US7867989B2, “α-glucosidase inhibitors from lichens” (priority 2007, dated 2011).

The target in this experiment is α-Glucosidase (EC 3.2.1.20). The settings on record: read-out: IC50 values ± SEM against α-glucosidase enzyme; pH 6.9, 37° C., 0.5 μM p-nitrophenyl α-D-glucopyranoside substrate, 250 units/mL enzyme, 50 mM sodium phosphate buffer with 100 mM NaCl.

Description: The increments in absorption at 400 nm due to the hydrolysis of PNP-G by α-glucosidase were monitored continuously with a molecular devices spectrophotometer.

As for `CC(C)(O)[C@H]1CC[C@]2(C)[C@H]3CC[C@@H]4[C@@]5(C)CCCC(C)(C)[C@@H]5[C@@H](O)C[C@@]4(C)[C@]3(C)CC[C@@H]12` [Zeorin, 6,22-Hopanediol], the half-maximal inhibitory concentration (IC50) turned out to be 100 ± 0.3 µM.
